This passage reports Activity and EC50 results from ChEMBL document CHEMBL2040802, “Synthesis and pharmacological activity of N-(2,2-dimethyl-3,4-dihydro-2H-1-benzopyran-4-yl)-4H-1,2,4-benzothiadiazine-3-carboxamides 1,1-dioxides on rat uterus, rat aorta and rat pancreatic β-cells” (Eur J Med Chem, 2012).

Assay [1] is described as follows: Inhibition of glucose-induced insulin secretion from Wistar rat pancreatic islet assessed as residual insulin release at 50 uM after 90 mins by radiometric analysis. It counts as functional.
For the next assay, the system named is Aorta. Description: Myorelaxant activity in Wistar rat aorta rings assessed as inhibition of KCl-induced contraction. It counts as functional, tissue-based.
Assay [2] can be described thus: Myorelaxant effect in oxytoxin-induced Wistar rat uterus smooth muscle assessed as residual contractile activity by continuous superfusion of oxytocin at 10 uM. It counts as functional.
The nature of assay [3]: Myorelaxant effect in oxytoxin-induced Wistar rat uterus smooth muscle assessed as residual contractile activity by continuous superfusion of oxytocin at 50 uM. The format is functional.
A short description of assay [4]: Myorelaxant effect in oxytoxin-induced Wistar rat uterus smooth muscle assessed as residual contractile activity by continuous superfusion of oxytocin at 100 uM. The format is functional.

The term EC50 denotes the concentration giving half of the maximal effect. Take `Cc1ccc2c(c1)S(=O)(=O)N=C(C(=O)NC1CC(C)(C)Oc3ccc(Br)cc31)N2` (centres undefined): the Activity in assay [1] amounted to 91.4%; in assay [2], 76.8%; in assay [3] it was 44.5%; in assay [4], 6.6%. In the assay on Aorta, the EC50 is over 30 µM.

Turning to `Cc1ccc2c(c1)S(=O)(=O)N=C(C(=O)NC1CC(C)(C)Oc3ccc([N+](=O)[O-])cc31)N2` (centres undefined), the Activity in assay [1] was 75.7%; in assay [2] it was 103.9%; in assay [3], 94.9%; in assay [4] it was 90.6%. For the same molecule, in the assay with Aorta, the EC50 is over 30 µM.

Take `CC1(C)CC(NC(=O)C2=NS(=O)(=O)c3ccccc3N2)c2cc(Br)ccc2O1` (centres undefined): the Activity in assay [1] came out at 86.7%; in assay [2] it was 60.1%; in assay [3], 44.3%; in assay [4] it was 19.9%. Moreover, the EC50 with Aorta is over 30 µM.

Consider `CC1=Nc2ccc(Cl)cc2S(=O)(=O)N1` [DIAZOXIDE], for which the Activity was determined as 28.8% in assay [1], 93.8% in assay [2], 76.3% in assay [3] and 67.7% in assay [4].

Take `Cc1ccc2c(c1)S(=O)(=O)N=C(C(=O)NC1CC(C)(C)Oc3ccc(F)cc31)N2` (centres undefined): the Activity in assay [1] worked out at 96.9%; in assay [2] it was 116.6%; in assay [3], 132.4%; in assay [4] it was 124.4%. Moreover, the EC50 with Aorta was over 30 µM.

For the molecule `CC1(C)CC(NC(=O)C2=NS(=O)(=O)c3ccccc3N2)c2cc([N+](=O)[O-])ccc2O1` (centres undefined), the Activity in assay [1] was 77.9%; in assay [2], 96.8%; in assay [3], 62.4%; in assay [4], 34.7%. Also, the EC50 in the assay with Aorta was over 30 µM.

Consider `CC(N/C(=N\C#N)Nc1ccncc1)C(C)(C)C` (centres undefined) [PINACIDIL ANHYDROUS], for which the Activity is 92.1% in assay [1], 58.1% in assay [2], 35.5% in assay [3] and 38.1% in assay [4].

On to `CC1(C)CC(NC(=O)C2=NS(=O)(=O)c3cc(Cl)ccc3N2)c2cc([N+](=O)[O-])ccc2O1` (centres undefined), for which the Activity in assay [1] came out at 77%; in assay [2] it was 97.9%; in assay [3], 70.9%; in assay [4], 34.7%. For the same molecule, the EC50 in the assay with Aorta was over 30 µM.

As to `CC1(C)CC(NC(=O)C2=NS(=O)(=O)c3ccccc3N2)c2cc(F)ccc2O1` (centres undefined), the Activity in assay [1] amounted to 77.3%; in assay [2], 123.7%; in assay [3], 97.9%; in assay [4], 76.8%. In addition, in the assay on Aorta, the EC50 is over 30 µM.

Turning to `CC1(C)Oc2ccc(C#N)cc2[C@@H](N2CCCC2=O)[C@@H]1O` (relative stereo) [LEVCROMAKALIM], the Activity in assay [1] came out at 77.2%.
